# Results from US12383619B2, “Use of glutamate modulating agents with immunotherapies to treat cancer” (Biohaven Therapeutics Ltd., priority 2016, dated 2025).
# Where two headings read alike, the source gives them in different places.
# How the values were obtained:
# GL261 cells = assay: Orthotopic GL261 glioma model, survival of mice; format: in vivo, C57BL/6J mice
# Description: In this Example, the effects of the combination of a glutamate modulator, BHV-4157, in combination with an immunotherapeutic agent, anti-PD-1, were compared to either alone in a glioma model substantially as decribed in Zeng, J., et al., Int J Radiat Oncol Biol Phys., 2013 Jun. 1; 86(2):343-349, portions of which are reproduced below.
# GL261-Luc cells are grown in Dulbecco's Modified Eagle Medium (DMEM)+10% fetal bovineserum+1% penicillinstreptomycin at 37° C. in a humidified incubator maintained at 5% CO2 and 5% O2 (Gibco).
# Female C57BL/6J mice (Harlan), 4 to 6 weeks old or 6 to 8 weeks old, are used for orthotopic glioma experiments as described in Sonabend A M, Velicu S, Ulasov IV, et al. A safety and efficacy study of local delivery of interleukin 12 transgene by PPC polymer in a model of experimental glioma. Anticancer Drugs. 2008;19:133-142. To establish syngeneic gliomas, 130,000 GL261-Luc cells are stereotactically injected in a 1 μl volume into the left striatum over 1 minute into the following coordinates: 1 mm anterior, 1 mm lateral from bregma, and 3 mm deep from the cortical surface. Tumor burden is monitored by luciferase imaging on days 7, 21 and 35 after implantation, and the mice are randomly allocated into treatment arms based on tumor radiance, so that the average tumor radiance in each group is roughly equivalent. The animals are euthanized when they show predetermined signs of neurologic deficits (failure to ambulate, weight loss >20% body mass, lethargy, hunched posture). […] Each arm has 6 to 10 mice in survival experiments. All experiments are repeated at least in triplicate.
# Hamster antimurine PD-1 monoclonal antibody producing hybridoma G4 are used to produce antibodies as described in Hirano F, Kaneko K, Tamura H, et al. Blockade of B7-H1 and PD-1 by monoclonal antibodies potentiates cancer therapeutic immunity. Cancer Res. 2005;65:1089-1096.
# Female C57BL/6J mice, 4 to 6 weeks old, were implanted intrancranially in the left striatum with 130,000 GL261 cells each. The mice were housed and maintained according to the institutional Animal Care and Use Committee protocol in the Johns Hopkins University Animal Facility. The mice were imaged by bioluminescent IVIS® imaging (Perkin Elmer) at day 7, 21, and 35 to assess tumor burden and randomly assigned to groups, 10 mice per arm, as follows: • 1. Control • 2. anti-PD-1 • 3. Trigriluzole 15 mg/kg • 4. Trigriluzole 30 mg/kg • 5. Trigriluzole 45 mg/kg • 6. anti-PD-1+Trigriluzole 15 mg/kg • 7. anti-PD-1+Trigriluzole 30 mg/kg • 8. anti-PD-1+Trigriluzole 45 mg/kg
# Day 0 represents the date of intracranial implantation. Control arm 1 received no treatment. Control arm 2 received αPD-1 alone at a dose of 200 μg/animal via intraperitoneal injection on days 10, 12, 14. Control arms 3, 4 and 5 received BHV-4157 alone at doses of 15, 30 and 45 mg/kg (respectively) via intraperitoneal injection daily beginning on day 10. Control arms 6, 7 and 8 received BHV-4157 at doses of 15, 30 and 45 mg/kg (respectively) via intraperitoneal injection daily beginning on day 10 and αPD-1 at a dose of 200 μg/animal via intraperitoneal injection on days 10, 12, 14.
# Animals were euthanized according to humane endpoints including central nervous system disturbances, hunched posture, lethargy, weight loss, and inability to ambulate.
# advanced melanoma = settings: cited from earlier work; for Response duration: Median in months: patients with confirmed complete or partial response; for OS: Hazard ratio / PFS: Hazard ratio: pembrolizumab compared to ipilimumab
# advanced NSCLC = settings: cited from earlier work; for OS: Hazard ratio / PFS: Hazard ratio: pembrolizumab compared to docetaxel
# [1] = TPS 1% (entire population), 2 mg/kg every 3 weeks
# [2] = TPS 1% (entire population), 10 mg/kg every 3 weeks
# [3] = TPS≥50% (section head prints 'TPS'), 2 mg/kg every 3 weeks
# [4] = TPS≥50% (section head prints 'TPS'), 10 mg/kg every 3 weeks
molecule,measurement,setting,value
"CN(CC(=O)Nc1nc2ccc(OC(F)(F)F)cc2s1)C(=O)CNC(=O)CN [BHV-4157, 2-Amino-N-{[methyl({[6-(trifluoromethoxy)-1,3-benzothiazol-2-yl]carbamoyl}methyl)carbamoyl]methyl}acetamide]",Percent survival of mice after tumor implantation,"GL261 cells; Arm 3: 15 mg/kg i.p. daily from day 10, day 0",100%
same,Percent survival of mice after tumor implantation,"GL261 cells; Arm 3: 15 mg/kg i.p. daily from day 10, day 21",90%
same,Percent survival of mice after tumor implantation,"GL261 cells; Arm 3: 15 mg/kg i.p. daily from day 10, day 22",80%
same,Percent survival of mice after tumor implantation,"GL261 cells; Arm 3: 15 mg/kg i.p. daily from day 10, day 23",70%
same,Percent survival of mice after tumor implantation,"GL261 cells; Arm 3: 15 mg/kg i.p. daily from day 10, day 24",50%
same,Percent survival of mice after tumor implantation,"GL261 cells; Arm 3: 15 mg/kg i.p. daily from day 10, day 26",30%
same,Percent survival of mice after tumor implantation,"GL261 cells; Arm 3: 15 mg/kg i.p. daily from day 10, day 27",20%
same,Percent survival of mice after tumor implantation,"GL261 cells; Arm 3: 15 mg/kg i.p. daily from day 10, day 28",10%
same,Percent survival of mice after tumor implantation,"GL261 cells; Arm 3: 15 mg/kg i.p. daily from day 10, day 36",0%
same,Percent survival of mice after tumor implantation,"GL261 cells; Arm 4: 30 mg/kg i.p. daily from day 10, day 0",100%
same,Percent survival of mice after tumor implantation,"GL261 cells; Arm 4: 30 mg/kg i.p. daily from day 10, day 21",90%
same,Percent survival of mice after tumor implantation,"GL261 cells; Arm 4: 30 mg/kg i.p. daily from day 10, day 23",70%
same,Percent survival of mice after tumor implantation,"GL261 cells; Arm 4: 30 mg/kg i.p. daily from day 10, day 24",50%
same,Percent survival of mice after tumor implantation,"GL261 cells; Arm 4: 30 mg/kg i.p. daily from day 10, day 26",30%
same,Percent survival of mice after tumor implantation,"GL261 cells; Arm 4: 30 mg/kg i.p. daily from day 10, day 29",20%
same,Percent survival of mice after tumor implantation,"GL261 cells; Arm 4: 30 mg/kg i.p. daily from day 10, day 34",10%
same,Percent survival of mice after tumor implantation,"GL261 cells; Arm 4: 30 mg/kg i.p. daily from day 10, day 60",10%
same,Percent survival of mice after tumor implantation,"GL261 cells; Arm 5: 45 mg/kg i.p. daily from day 10, day 0",100%
same,Percent survival of mice after tumor implantation,"GL261 cells; Arm 5: 45 mg/kg i.p. daily from day 10, day 21",90%
same,Percent survival of mice after tumor implantation,"GL261 cells; Arm 5: 45 mg/kg i.p. daily from day 10, day 22",80%
same,Percent survival of mice after tumor implantation,"GL261 cells; Arm 5: 45 mg/kg i.p. daily from day 10, day 23",70%
same,Percent survival of mice after tumor implantation,"GL261 cells; Arm 5: 45 mg/kg i.p. daily from day 10, day 24",60%
same,Percent survival of mice after tumor implantation,"GL261 cells; Arm 5: 45 mg/kg i.p. daily from day 10, day 25",50%
same,Percent survival of mice after tumor implantation,"GL261 cells; Arm 5: 45 mg/kg i.p. daily from day 10, day 27",20%
same,Percent survival of mice after tumor implantation,"GL261 cells; Arm 5: 45 mg/kg i.p. daily from day 10, day 28",10%
same,Percent survival of mice after tumor implantation,"GL261 cells; Arm 5: 45 mg/kg i.p. daily from day 10, day 29",0%
Pembrolizumab: humanized monoclonal IgG4 antibody directed against human cell surface receptor PD-1,Best overall response: ORR %,advanced melanoma; 10 mg/kg every 2 weeks,34%
same,Complete response %,advanced melanoma; 10 mg/kg every 2 weeks,5%
same,OS: % of patients with event,advanced melanoma; 10 mg/kg every 2 weeks,(30%)
same,OS: Median in months,advanced melanoma; 10 mg/kg every 2 weeks,Not reached
same,OS: Number of patients with event,advanced melanoma; 10 mg/kg every 2 weeks,85
same,PFS: % of patients with event,advanced melanoma; 10 mg/kg every 2 weeks,(56%)
same,PFS: Median in months,advanced melanoma; 10 mg/kg every 2 weeks,5.5 months
same,PFS: Number of patients with event,advanced melanoma; 10 mg/kg every 2 weeks,157
same,Partial response %,advanced melanoma; 10 mg/kg every 2 weeks,29%
same,Response duration: % ongoing,advanced melanoma; 10 mg/kg every 2 weeks,89%
same,Response duration: Median in months,advanced melanoma; 10 mg/kg every 2 weeks,8.3 months
same,OS: Hazard ratio,advanced melanoma; 10 mg/kg every 2 weeks,0.63
same,PFS: Hazard ratio,advanced melanoma; 10 mg/kg every 2 weeks,0.58
same,Best overall response: ORR %,advanced melanoma; 10 mg/kg every 3 weeks,33%
same,Complete response %,advanced melanoma; 10 mg/kg every 3 weeks,6%
same,OS: % of patients with event,advanced melanoma; 10 mg/kg every 3 weeks,(33%)
same,OS: Median in months,advanced melanoma; 10 mg/kg every 3 weeks,Not reached
same,OS: Number of patients with event,advanced melanoma; 10 mg/kg every 3 weeks,92
same,PFS: % of patients with event,advanced melanoma; 10 mg/kg every 3 weeks,(57%)
same,PFS: Median in months,advanced melanoma; 10 mg/kg every 3 weeks,4.1 months
same,PFS: Number of patients with event,advanced melanoma; 10 mg/kg every 3 weeks,157
same,Partial response %,advanced melanoma; 10 mg/kg every 3 weeks,27%
same,Response duration: % ongoing,advanced melanoma; 10 mg/kg every 3 weeks,97%
same,Response duration: Median in months,advanced melanoma; 10 mg/kg every 3 weeks,Not reached
same,OS: Hazard ratio,advanced melanoma; 10 mg/kg every 3 weeks,0.69
same,PFS: Hazard ratio,advanced melanoma; 10 mg/kg every 3 weeks,0.58
same,PFS: Number of patients with event,"advanced NSCLC; TPS 1% (entire population), 2 mg/kg every 3 weeks, BICR, RECIST 1.1",266
same,OS: % of patients with event,advanced NSCLC; [1],(50%)
same,OS: Number of patients with event,advanced NSCLC; [1],172
same,Overall response rate: ORR %,advanced NSCLC; [1],18%
same,PFS: % of patients with event,advanced NSCLC; [1],(77%)
same,PFS: Median in months,advanced NSCLC; [1],3.9 months
same,Response duration: % ongoing,advanced NSCLC; [1],73%
same,Response duration: Median in months,advanced NSCLC; [1],Not reached
same,OS: Hazard ratio,advanced NSCLC; [1],0.71
same,PFS: Hazard ratio,advanced NSCLC; [1],0.88
same,PFS: Number of patients with event,"advanced NSCLC; TPS 1% (entire population), 10 mg/kg every 3 weeks, BICR, RECIST 1.1",255
same,OS: % of patients with event,advanced NSCLC; [2],(45%)
same,OS: Number of patients with event,advanced NSCLC; [2],156
same,Overall response rate: ORR %,advanced NSCLC; [2],18%
same,PFS: % of patients with event,advanced NSCLC; [2],(74%)
same,PFS: Median in months,advanced NSCLC; [2],4.0 months
same,Response duration: % ongoing,advanced NSCLC; [2],72%
same,Response duration: Median in months,advanced NSCLC; [2],Not reached
same,OS: Hazard ratio,advanced NSCLC; [2],0.61
same,PFS: Hazard ratio,advanced NSCLC; [2],0.79
same,Overall response rate: ORR %,"advanced NSCLC; TPS≥50% (section head prints 'TPS'), 2 mg/kg every 3 weeks, all partial responses",30%
same,OS: % of patients with event,advanced NSCLC; [3],(42%)
same,OS: Median in months,advanced NSCLC; [3],14.9 months
same,OS: Number of patients with event,advanced NSCLC; [3],58
same,PFS: % of patients with event,advanced NSCLC; [3],(64%)
same,PFS: Median in months,advanced NSCLC; [3],5.2 months
same,PFS: Number of patients with event,advanced NSCLC; [3],89
same,Response duration: % ongoing,advanced NSCLC; [3],76%
same,Response duration: Median in months,advanced NSCLC; [3],Not reached
same,OS: Hazard ratio,advanced NSCLC; [3],0.54
same,PFS: Hazard ratio,advanced NSCLC; [3],0.58
same,Overall response rate: ORR %,"advanced NSCLC; TPS≥50% (section head prints 'TPS'), 10 mg/kg every 3 weeks, all partial responses",29%
same,OS: % of patients with event,advanced NSCLC; [4],(40%)
same,OS: Median in months,advanced NSCLC; [4],17.3 months
same,OS: Number of patients with event,advanced NSCLC; [4],60
same,PFS: % of patients with event,advanced NSCLC; [4],(64%)
same,PFS: Median in months,advanced NSCLC; [4],5.2 months
same,PFS: Number of patients with event,advanced NSCLC; [4],97
same,Response duration: % ongoing,advanced NSCLC; [4],75%
same,Response duration: Median in months,advanced NSCLC; [4],Not reached
same,OS: Hazard ratio,advanced NSCLC; [4],0.50
same,PFS: Hazard ratio,advanced NSCLC; [4],0.59
